This is an account of results in article PMC3722118, “Hellebrin and its aglycone form hellebrigenin display similar in vitro growth inhibitory effects in cancer cells and binding profiles to the alpha subunits of the Na^+/K^+-ATPase” (Molecular Cancer, 2013).

The structures appear in SMILES notation. Like-named read-outs stand apart in the source and are kept apart here.

In assay [1] the test system is MDR cancer cell models. The assay can be described thus: MTT viability in several MDR cancer cell models. The assay is classed as cell-based, human. The following applies: overexpression of ABC-transporters and/or altered glutathione metabolism, 72 hours. The source says: (§1) The following human cancer cell lines and their chemoresistant sublines were used in this study: the colon carcinoma cell line HCT-116 p53/wt and the p53 knock-out cell line HCT-116 p53/ko (generously donated by B. Vogelstein, Johns Hopkins University, Baltimore, MD, USA); the epidermal carcinoma-derived cell line KB-3-1 and the ABCB1-overexpressing subline KB-C-1 (generously donated by D.W. Shen, Bethesda, USA); the small cell lung carcinoma cell line GLC-4 and the ABCC1- and LRP-overexpressing subline GLC-4/ADR (from E.G. de Vries, Groningen, Netherlands); the ovarian carcinoma cell line A2780 and the cisplatin resistant subline A2780cis (purchased from Sigma-Aldrich); and the promyelocytic leukemia cell line HL60 and the mitoxantrone resistant subline HL60/mx (generously donated by G. Harker, Salt Lake City, USA). All cell lines were grown in RPMI 1640 supplemented with 10% fetal bovine serum with the exception of the HCT-116 cells, which were grown in McCoy’s medium with 10% serum.
(§2) Figure 4 Impact of different MDR mechanisms on the cytotoxicity of hellebrigenin. […] Viability was determined using a 3-(4,5-dimethythiazol-2-yl)-2,5-diphenyltetrazolium bromide (MTT) colorimetric assay. […]

Assay [2] deals with T1, human α3β1 NaK complex (Homo sapiens, UniProt P13637).
T1 construct: made in house; host or cells: Pichia pastoris strain SMD1165 (membranes)
The assay can be described thus: 3H-ouabain competitive displacement on P. pastoris membranes. The assay is classed as binding. The note with it: for Kd: 3H-ouabain displacement, three independent experiments, read-out: Affinity (nM) α-3 (KD ± SEM); for Selectivity α-1 / α-3: ratio of KD α-1 to KD α-3. On the procedure:
(§3) K0.5 was calculated using a one site inhibition model: B/BCG=0 = K0.5/([CG] + K0.5). […] Binding of each cardiac glycoside was estimated in 3 separate experiments.
(§4) Average KD or Ki values ± SEM for each isoform were calculated. Statistical significance was calculated by the unpaired Students t-test. P values <0.05 were considered significant.

In assay [3] the target is T2, human α1β1 NaK complex (Homo sapiens, UniProt P05023).
T2 construct: made in house; host or cells: Pichia pastoris strain SMD1165 (membranes)
The assay is described as above. The assay is classed as binding. The following applies: for Kd: 3H-ouabain displacement, three independent experiments, read-out: Affinity (nM) α-1 (KD ± SEM); for fold higher affinity for α1 than for the α2 and α3 subunits: from Table 2 KD values. On the procedure:
as §3, §4

The target in assay [4] is T3, human α2β1 NaK complex (Homo sapiens, UniProt P50993).
T3 construct: made in house; host or cells: Pichia pastoris strain SMD1165 (membranes)
The description is as above. The assay is classed as binding. The note with it: for Kd: 3H-ouabain displacement, three independent experiments, read-out: Affinity (nM) α-2 (KD ± SEM); for Selectivity α-1 / α-2: ratio of KD α-1 to KD α-2. How it is done:
as §3, §4

Assay [5] deals with human cancer cells (A549, U373, Hs683, T98G, MCF-7, SKMEL-28, PC-3, HT-29). In words: MTT growth inhibition, mean over the eight human cancer cell lines. The assay is classed as cell-based. The note with it: read-out: IC50 (nM) Mean ± SEM. Summed up: (§5)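 RPMI + 10% heat-inactivated FCS, 4 mM glutamine, gentamicin/penicillin/streptomycin. Readout: MTT → formazan, spectrophotometric OD, treated vs control. n = 6 replicates/condition.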

In assay [6] the test system is Hs683 glioma cells. In words: MTT colorimetric in vitro growth inhibition assay. The assay is classed as cell-based, human. The following applies: read-out: IC50 (nM) Hs683. In outline: as §5
In assay [7] the test system is PC-3 prostate cancer cells. In words: MTT colorimetric in vitro growth inhibition assay. The assay is classed as cell-based, human. The note with it: read-out: IC50 (nM) PC-3. In outline:
as §5

Assay [8] concerns SKMEL-28 melanoma cells. In words: MTT colorimetric in vitro growth inhibition assay. The assay is classed as cell-based, human. The following applies: read-out: IC50 (nM) SKMEL-28. Summed up: as §5
The subject of assay [9] is MCF-7 breast cancer cells. The assay can be described thus: MTT colorimetric in vitro growth inhibition assay. The assay is classed as cell-based, human. The note with it: read-out: IC50 (nM) MCF-7. Summed up:
as §5

Assay [10] has as its system HT-29 colon cancer cells. The assay can be described thus: MTT colorimetric in vitro growth inhibition assay. The assay is classed as cell-based, human. The following applies: read-out: IC50 (nM) HT-29. In outline:
as §5

Assay [11] has as its system T98G glioma cells. In words: MTT colorimetric in vitro growth inhibition assay. The assay is classed as cell-based, human. The note with it: read-out: IC50 (nM) T98G. Summed up: as §5
Assay [12] has as its system A549 NSCLC cells. The assay can be described thus: MTT colorimetric in vitro growth inhibition assay. The assay is classed as cell-based, human. The note with it: read-out: IC50 (nM) A549. Summed up:
as §5

Assay [13] concerns U373 glioma cells. In words: MTT colorimetric in vitro growth inhibition assay. The assay is classed as cell-based, human. The following applies: read-out: IC50 (nM) U373. Summed up: as §5
The subject of assay [14] is HCT-116 p53/wt and HCT-116 p53/ko colon carcinoma cells. In words: MTT viability, p53 wild-type versus knock-out model. The assay is classed as cell-based, human. The following applies: 72 hours.
Source text: as §1, §2

Setting [15] is: three days of culture, * three independent experiments, ** one experiment, six replicates.

The term Kd denotes the equilibrium constant for the complex coming apart. Broadly, the IC50 is the concentration needed to halve the response being measured. `C[C@]12CC[C@H]3[C@@H](CC[C@]4(O)C[C@@H](O)CC[C@]34C=O)[C@@]1(O)CC[C@@H]2c1ccc(=O)oc1` [Hellebrigenin]: in assay [1], the “activity in several MDR cancer cell models versus parental cells” value was “equally active”. In addition, the equilibrium dissociation constant (Kd) in [2] was 191 ± 23 nM; in assay [3], 103 ± 19 nM; in assay [4] it was 198 ± 51 nM. Further, the “Selectivity α-1 / α-3” value in [2] was determined as 0.5. Besides, the “fold higher affinity for α1 than for the α2 and α3 subunits” value in assay [3] is ~ 2 fold. Also, the “Selectivity α-1 / α-2” value in assay [4] is 0.5. Besides, the IC50 in assay [5] (mean over eight human cancer cell lines, three days of culture) worked out at 16 ± 5 nM; in [6] (setting [15]), 6 ± 1 nM; in assay [7] (setting [15]), 18 ± 1 nM; in [8] (setting [15]) it was 28 ± 9 nM; in assay [9] (setting [15]), 42 ± 2 nM; in assay [10] (setting [15]), 9 ± 1 nM. For the same compound, the IC50 in assay [11] (setting [15]) was 9 ± 1 nM; in assay [12] (setting [15]) it was 3 ± 1 nM; in [13] (setting [15]), 9 ± 1 nM. Moreover, the “in vitro growth inhibitory activity in p53 wild-type versus p53KO HCT-116 cells” value in assay [14] is listed as “similar”.

For the compound `C[C@@H]1O[C@@H](O[C@H]2CC[C@]3(C=O)[C@H]4CC[C@]5(C)[C@@H](c6ccc(=O)oc6)CC[C@]5(O)[C@@H]4CC[C@]3(O)C2)[C@H](O)[C@H](O)[C@H]1O[C@@H]1O[C@H](CO)[C@@H](O)[C@H](O)[C@H]1O` [Hellebrin], the “activity in several MDR cancer cell models versus parental cells” value in [1] was “equally active”. Further, the Kd was 175 ± 20 nM in assay [2], 86 ± 18 nM in [3] and 218 ± 52 nM in assay [4]. Also, the “Selectivity α-1 / α-3” value in assay [2] is 0.5. In addition, the “fold higher affinity for α1 than for the α2 and α3 subunits” value in assay [3] is recorded as ~ 2 fold. Further, the “Selectivity α-1 / α-2” value in assay [4] came out at 0.4. For the same compound, the IC50 was 28 ± 7 nM in [5] (Homo sapiens, 72 h); 7 ± 1 nM in assay [6] (Homo sapiens, Hs 683, 72 h); 11 ± 1 nM in assay [7] (Homo sapiens, 72 h); 40 ± 5 nM in [8] (Homo sapiens, SK-MEL-28, 72 h); 58 ± 12 nM in assay [9] (Homo sapiens, MCF7, 72 h); 27 ± 4 nM in [10] (Homo sapiens, HT-29, 72 h). Further, the IC50 in [11] (Homo sapiens, T98G, 72 h) is 30 ± 1 nM; in assay [12] (Homo sapiens, A549, 72 h), 6 ± 1 nM; in [13] (Homo sapiens, U373 MG, 72 h), 41 ± 2 nM. In addition, the “in vitro growth inhibitory activity in p53 wild-type versus p53KO HCT-116 cells” value in [14] is given as “similar”.
